Reference: patent US7662361B2, “Methods and compositions for modulating drug activity through telomere damage” (priority 1999, dated 2010)

What was measured:
[1] = tested on: telomerase activity in histocultures of FaDu xenograft tumors; test: TRAP telomerase activity in tumor histocultures; assay type: cell-based, human; conditions: 1 μM paclitaxel
Description: Histocultures of solid tumors. Histocultures are cultures of tumor fragments where the three dimensional structure and the heterogeneous tissue composition are maintained. […] Tumor specimens were washed three times with culture medium for three times and dissected into about 1 mm^3 fragments under sterile conditions. The culture medium for the FaDu histocultures was MEM supplemented with 9% heat-inactivated FBS, 2 mM glutamine, 90 μg/ml gentamicin and 90 μg/ml cefotaxime sodium.
For the preparation of cell and tissue extracts, cells and tissue were harvested, washed, and stored at −70° C. […] The protein concentration of the supernatant was determined using Bicinchoninic Acid Kit (Sigma, St Louis, Mo.). […] Samples with equal amounts of protein (1-2 μg) were analyzed by TRAP. […]
The template for the internal standard was amplified by PCR and purified by spin columns (QIAquick PCR purification kit, Qiagen, Valencia, Calif.). The concentration was determined by a spectrophotometer.
PCR was performed on the GeneAmp PCR system 2400 (Perkin Elmer) and initiated by 1 cycle at 94° C. for 3 min, 50° C. for 4 min, and 68° C. for 2 min, then 25 rounds at 94° C. for 30 sec, 50° C. for 30 sec, and 68° C. for 90 sec, followed by 68° C. for 10 min. […] The gel was then dried and the amplification products were detected.

FaDu, MCF7 and PC3 cells = test: Cell Death Detection ELISA, release of DNA-histone complex; assay type: cell-based, human; conditions: single agents vs untreated controls
Description: Apoptosis was measured as the release of DNA-histone complex from the nucleus to the cytoplasm, using the Cell Death Detection ELISA kit which quantifies the amount of DNA-histone complex released into the cytoplasm. Briefly, drug-treated cells were collected and lysed in the lysis buffer. The cytoplasmic fractions of the lysates were placed in wells of a 96-well microtiter plate pre-coated with mouse antihistone primary antibody and mouse anti-DNA-antibody conjugated to peroxidase. The peroxidase substrate, 2,2′-azido-di-[3-ethylbenzthiazoline sulfonate], was applied and the absorbance at 405 nm was measured.
Treatment Protocol. Treatment with the above agents was initiated after cells were allowed to attach to the growth surface in culture flasks. […]
Drug activity evaluation. Agent effect was measured in three ways, i.e., enumeration of the number of cells that remained attached in culture flask, enumeration of the number of cells that detached from the growth surface, and by measuring changes in apoptosis. […] The remaining cell number after agent treatment was measured using the sulforhodamine B (SRB) assay. The drug-induced detachment of cells from the growth surface was determined by counting the attached and detached cells. Drug-induced apoptosis was measured using the Cell Death Detection ELISA kit which measures the release of DNA-histone complex from the nucleus to the cytoplasm. […]

[2] = Host toxicity (body weight, death) in xenograft-bearing mice; conditions: single agents
Description: The activity of paclitaxel, with or without AZT, was evaluated in immunodeficient mice (male Balb/c nu/nu mice, 6-8 weeks old) bearing the human pharynx FaDu xenografts. […] The saline control group received injections of 200 μl/day of physiological saline of five consecutive days. The paclitaxel group received injections of 10 mg/kg/day paclitaxel dissolved in Cremophor and ethanol (i.e., Taxol) in a volume of 200 μl for five consecutive days. The AZT group received a seven-day infusion of AZT at a rate of 200 ng/hr by a subcutaneously implanted Alzet minipump. […] Animal weights and tumor sizes were measured on days 1, 3, 6, 8, and 10 after initiation of the paclitaxel treatment.

CC(=O)O[C@H]1C(=O)[C@@]2(C)[C@H]([C@H](OC(=O)c3ccccc3)[C@]3(O)C[C@H](OC(=O)[C@H](O)[C@@H](NC(=O)c4ccccc4)c4ccccc4)C(C)=C1C3(C)C)[C@]1(OC(C)=O)CO[C@@H]1C[C@@H]2O [paclitaxel]
time of peak telomerase activity [1]: 12 h
telomerase activity ([1]; 96 hr): about 50 % of the baseline level
release of DNA-histone complex from the nucleus to the cytoplasm (FaDu, MCF7 and PC3 cells): significant enhancement
toxicity-related death [2]: no toxicity-related death
